# Reference: PubChem BioAssay (NCI)
#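 All cell lines were grown in 96-well plates and treated with compound for 48 hours. At the TGI there is no net growth.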
# Assays:
# Assay in all cases: NCI-60 cell line screen, 48 h
# CAKI-1 renal = system: CAKI-1 renal
# NCI/ADR-RES ovarian = system: NCI/ADR-RES ovarian
# PC-3 prostate = system: PC-3 prostate
# A549 NSCLC = system: A549 NSCLC
# HCC-2998 colon = system: HCC-2998 colon
# NCI-H460 lung = system: NCI-H460 lung
# SNB-75 CNS = system: SNB-75 CNS
# SF-539 CNS = system: SF-539 CNS
# SF-295 CNS = system: SF-295 CNS
# EKVX NSCLC = system: EKVX NSCLC
# NCI-H522 lung = system: NCI-H522 lung
# NCI-H23 lung = system: NCI-H23 lung
# CCRF-CEM leukemia = system: CCRF-CEM leukemia
# TK-10 renal = system: TK-10 renal
# NCI-H226 lung = system: NCI-H226 lung
# OVCAR-4 ovarian = system: OVCAR-4 ovarian
# SN12C renal = system: SN12C renal
# OVCAR-5 ovarian = system: OVCAR-5 ovarian
# SR leukemia = system: SR leukemia
# RPMI-8226 leukemia = system: RPMI-8226 leukemia
SMILES,TGI (CAKI-1 renal) [µM],TGI (NCI/ADR-RES ovarian) [µM],TGI (PC-3 prostate) [µM],TGI (A549 NSCLC) [µM],TGI (HCC-2998 colon) [µM],TGI (NCI-H460 lung) [µM],TGI (SNB-75 CNS) [µM],TGI (SF-539 CNS) [µM],TGI (SF-295 CNS) [µM],TGI (EKVX NSCLC) [µM],TGI (NCI-H522 lung) [µM],TGI (NCI-H23 lung) [µM],TGI (CCRF-CEM leukemia) [µM],TGI (TK-10 renal) [µM],TGI (NCI-H226 lung) [µM],TGI (OVCAR-4 ovarian) [µM],TGI (SN12C renal) [µM],TGI (OVCAR-5 ovarian) [µM],TGI (SR leukemia) [µM],TGI (RPMI-8226 leukemia) [µM]
CCn1c2ccccc2c2cc(NC(=O)c3c(NCCNCCO)nc(=O)[nH]c3C)ccc21,> 100,> 100,> 100,> 100,> 100,> 100,> 100,> 100,> 100,> 100,> 100,> 100,> 100,> 100,> 100,> 100,> 100,> 100,,
COC(=O)N/N=C(/Cc1occc(=O)c1O)C(=O)Nc1ccc([N+](=O)[O-])cc1[N+](=O)[O-],> 100,,,> 100,> 100,> 100,> 100,> 100,> 100,> 100,> 100,> 100,> 100,> 100,> 100,> 100,> 100,> 100,> 100,> 100
COC(=O)C(=O)C(C(=O)OC)C(=O)C(=O)Nc1cc(Cl)c(Cl)cc1Cl (configuration not stated),> 100,,,> 100,> 100,> 100,> 100,> 100,> 100,> 100,> 100,> 100,> 100,> 100,> 100,> 100,> 100,> 100,56.7,60.3
CCc1ccccc1NC(=O)C(=O)CC(=O)c1sc(Nc2ccccc2Cl)nc1C,> 100,> 100,> 100,80,> 100,46.1,,66.1,99.2,> 100,47.5,> 100,58.9,> 100,> 100,> 100,> 100,> 100,,65.6
Cn1nc2ccccc2cc1=O,> 100,,,> 100,> 100,> 100,> 100,> 100,> 100,> 100,,> 100,> 100,> 100,> 100,> 100,> 100,> 100,,> 100
COC1=CC(=O)C2C(C1=O)C(c1ccc(OC)c(OC)c1)[C@H]2C (some centres not stated),24,,,> 100,> 100,> 100,> 100,> 100,> 100,> 100,26.1,42.9,62.4,33.3,> 100,30.6,,> 100,,38.4
COc1ccc2c(c1)OC(c1ccccc1O)CC2=O (configuration not stated),> 100,,,> 100,> 100,> 100,> 100,> 100,> 100,> 100,92.8,> 100,> 100,> 100,,> 100,> 100,> 100,,> 100
N#CC(c1ccccc1)N(CCOCCOCCN(C(=O)c1cccc2ccccc12)C(C#N)c1ccccc1)C(=O)c1cccc2ccccc12 (configuration not stated),> 100,> 100,> 100,> 100,> 100,> 100,> 100,> 100,> 100,> 100,,> 100,> 100,> 100,> 100,> 100,> 100,> 100,,
CC(C)(C)C(=O)/C=C/c1cccc(Oc2ccccc2)c1,,,,48.8,36.5,32.5,64.6,40.2,25.8,35.9,29.8,,31,,33.4,,27.4,32.8,> 100,22.5
CC(C)c1cccc(C(C)C)c1NC(=O)CCC(=O)NN,> 100,,,> 100,> 100,> 100,> 100,> 100,> 100,> 100,,> 100,> 100,> 100,> 100,> 100,> 100,> 100,,> 100
COC(=O)C1(C(=O)OC)CC2=C(S(=O)(=O)c3ccccc3)C[C@H](C#N)[C@H]2C1,> 100,> 100,> 100,> 100,,,> 100,> 100,> 100,> 100,> 100,> 100,> 100,> 100,> 100,> 100,> 100,> 100,,
O=C1C=C2CC[C@H]3[C@@H]4CC[C@H](OC(=O)c5cccc6cc7ccccc7nc56)[C@H]4CC[C@@H]3[C@H]2CC1,,> 100,> 100,> 100,,,> 100,> 100,> 100,> 100,69.2,> 100,> 100,> 100,> 100,> 100,> 100,> 100,,> 100
COC(=O)c1ccccc1C1CN=NC12Cc1cc(C)cc(C)c1C2=O (configuration not stated),> 100,> 100,> 100,> 100,> 100,> 100,> 100,> 100,> 100,> 100,90,> 100,> 100,> 100,> 100,> 100,> 100,> 100,,
C/C(=N/NC(N)=S)C(CN(C)C)C(C1=C(O)c2ccccc2OC1)c1ccccc1 (configuration not stated),> 100,,,> 100,> 100,> 100,> 100,> 100,> 100,> 100,> 100,> 100,> 100,> 100,> 100,> 100,> 100,> 100,> 100,> 100
O=C1NC2C(CCO)CC=C[C@H]2c2cc3c(cc21)OCO3 (some centres not stated),,,,> 100,,> 100,> 100,> 100,> 100,> 100,> 100,> 100,> 100,> 100,> 100,,> 100,,> 100,> 100
CCOC(=O)c1cc2cc(C)cc(C(=O)c3ccc([N+](=O)[O-])cc3)c2[nH]1,> 100,,> 100,> 100,> 100,> 100,> 100,> 100,> 100,> 100,> 100,> 100,,> 100,> 100,> 100,> 100,> 100,,> 100
O=C(N/N=C(\c1nc2ccc(Cl)cc2[nH]c1=O)C(O)c1ccccc1Cl)c1ccncc1 (configuration not stated),> 100,,,> 100,> 100,> 100,> 100,> 100,> 100,> 100,> 100,> 100,> 100,> 100,> 100,> 100,,> 100,,
CCN(CC)CCCCC1CCN(CC(=O)N2c3cc(Cl)ccc3NC(=O)CC2C)CC1 (configuration not stated),> 100,,,> 100,> 100,> 100,,,> 100,,,> 100,> 100,,> 100,> 100,> 100,> 100,> 100,> 100
NC(=O)OCc1c(-c2ccccc2)nn(-c2ccccc2)c1COC(N)=O,> 100,> 100,> 100,> 100,> 100,,> 100,> 100,> 100,,> 100,> 100,,> 100,> 100,> 100,> 100,> 100,,> 100
CCOC(=O)Nn1c(C)cc(C(=O)OC)c1C,> 100,,,> 100,> 100,> 100,> 100,> 100,> 100,> 100,> 100,> 100,> 100,> 100,> 100,,> 100,> 100,,> 100
Oc1cccc2c1[nH]c1c(C3=C[C@@]4(O)CC/C=C\CCCCN5CC[C@@H]3[C@]3(CC6/C=C\CCCCN6[C@H]34)C5)nccc12 (some centres not stated),4.43,6.31,3.87,4.39,1.87,2.19,3.86,3.74,3.29,4.87,2.4,2.56,4.04,5.56,5.17,2.79,2.49,2.81,,2.6
CC(C)C1COC(c2ccc3ccccc3c2-c2c(O[Si](C)(C)C(C)(C)C)ccc3ccccc23)=N1 (configuration not stated),45.2,,,31.7,28.9,37.4,32.5,32.4,32.1,35.3,29.8,30.7,35.5,33,26.4,36.1,33.2,32.6,,33.2
COC(=O)[C@H](COC(=O)/C=C/c1ccc(OC(C)=O)c(OC(C)=O)c1)NC(=O)/C=C/c1ccc(OC(C)=O)c(OC(C)=O)c1,35.1,> 100,31.2,> 100,36.6,53.9,30.1,> 100,,38.9,,47.6,> 100,,56.7,38.9,36.4,49.7,,> 100
N#CCc1nc(-c2cc3c(ccc4ccccc43)oc2=O)cs1,> 100,70.2,> 100,> 100,> 100,> 100,20.4,51.4,71.2,> 100,27.4,,> 100,38.9,81.2,60.4,> 100,> 100,,> 100
CN1N=C2c3ccccc3CC[C@H]2C1c1cccc(O)c1 (some centres not stated),,,,> 100,> 100,> 100,,> 100,> 100,> 100,> 100,> 100,> 100,> 100,> 100,> 100,> 100,> 100,> 100,> 100
C#Cc1cc(CN(CC(=O)OC(C)(C)C)CC(=O)OC(C)(C)C)nc(CN(CC(=O)OC(C)(C)C)CC(=O)OC(C)(C)C)c1,33.1,,,89.4,33.9,> 100,43.4,32.9,> 100,49.3,4.22,26.3,7.93,> 100,7.34,37.9,> 100,> 100,,6.25
Cc1ccc(S(=O)(=O)Nn2c(O)c(C#N)c(-c3ccc(N(C)C)cc3)c(C#N)c2=O)cc1,> 50,> 50,> 50,> 50,> 50,> 50,> 50,> 50,5.32,> 50,> 50,,> 50,> 50,> 50,> 50,> 50,> 50,,43.4
